The compounds below were run against T1, glucokinase (GK) (Homo sapiens, UniProt P35557) (assay: enzymatic glucokinase activity assay (ATP consumption, KinaseGlo luminescence)). Settings: Against GK; Kact = concentration giving 50% of maximal increase in GK activity; 5 μM ATP, 5 mM Glucose, 60 min room temperature; values given as bins; read-out: pKact.
T1 construct: I.D. No. 1 corresponds to residues 12-465 of glucokinase; made in house; host or cells: E. coli DH10b-T1r, pFLAG-CTC plasmid
T1 sequence (P35557 with tags, fused parts or gaps isoform P35557-2): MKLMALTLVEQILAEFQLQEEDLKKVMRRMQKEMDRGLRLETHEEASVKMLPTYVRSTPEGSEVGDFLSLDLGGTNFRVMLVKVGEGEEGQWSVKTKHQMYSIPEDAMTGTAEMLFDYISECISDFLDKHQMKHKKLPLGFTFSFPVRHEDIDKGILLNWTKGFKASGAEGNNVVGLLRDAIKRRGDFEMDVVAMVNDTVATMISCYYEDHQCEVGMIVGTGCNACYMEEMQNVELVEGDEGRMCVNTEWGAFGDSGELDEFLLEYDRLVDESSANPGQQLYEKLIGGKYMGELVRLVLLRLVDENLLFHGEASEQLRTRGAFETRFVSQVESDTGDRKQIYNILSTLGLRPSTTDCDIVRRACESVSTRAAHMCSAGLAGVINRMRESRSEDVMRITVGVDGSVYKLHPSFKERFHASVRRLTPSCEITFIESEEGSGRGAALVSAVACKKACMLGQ
Assay type: biochemical
Excerpt: The activity of compounds as glucokinase activators may be assayed in vitro, in vivo or in a cell line. Provided below is an enzymatic glucokinase activity assay.
Purified glucokinase may be obtained as follows. DNA encoding residues 12-465 of the full-length sequence of the human enzyme may be amplified by PCR and cloned into the HindIII and EcoRI sites of pFLAG-CTC (Sigma). SEQ. I.D. No. 1 corresponds to residues 12-465 of glucokinase.
The expression of recombinant glucokinase protein may be carried out by transformation and growth of DH10b-T1r E. coli cells incorporating the (pFLAG-CTC) plasmid in LB media. Protein expression can be induced in this system by the addition of IPTG to the culture medium.
Recombinant protein may be isolated from cellular extracts by passage over Sepharose Q Fast Flow resin (Pharmacia). This partially purified GK extract may then be further purified by a second passage over Poros HQ10 (Applied Biosystems). The purity of GK may be determined on denaturing SDS-PAGE gel. Purified GK may then be concentrated to a final concentration of 20.0 mg/ml. After flash freezing in liquid nitrogen, the proteins can be stored at −78° C. in a buffer containing 25 mM TRIS-HCl pH 7.6, 50 mM NaCl, and 0.5 mM TCEP.
The activation properties of compounds for GK may be determined using a black 384-well-plate format under the following reaction conditions: 25 mM Hepes pH 7.2, 25 mM NaCl, 10 mM MgCl2, 0.01% Brij35, 1 mM DTT, 5 μM ATP, 5 mM Glucose 2% DMSO. The amount of ATP consumed may be determined quantitatively by addition of equal volume of luciferase reagent (luciferase+beetle luciferin—KinaseGlo Luminescent Kinase Assay kit from Promega). The luminescence intensity may be measured by using the Analyst HT from LJL Biosystems.
The assay reaction may be initiated as follows: 4 μl of substrate mixture (12.5 μM ATP and 12.5 mM Glucose) was added to each well of the plate, followed by the addition of 2 μl of activator (2 fold serial dilutions for 11 data points for each activator) containing 10% DMSO. 4 μL of 1.25 nM GK solution may be added to initiate the reaction. The reaction mixture may then be incubated at room temperature for 60 min, and quenched and developed by addition of 10 μL of luciferase reagent. Luminescence intensities of the resulting reaction mixtures may be measured after a 10 min incubation at room temperature. The luminescence intensity may be measured by using the Analyst HT from LJL Biosystems.
pKact and % ACTmax values may be calculated by non-linear curve fitting of the compound concentrations and luminescence intensities to a standard inhibition/activation equation.

CN(C)CCNC(=O)c1ccc2c(=O)n(C(CC3CCCCC3)C(=O)Nc3ncc(Cl)s3)c(=O)[nH]c2c1 (stereo not shown) [Compound 177, 3-(1-(5-chlorothiazol-2-ylamino)-3-cyclohexyl-1-oxopropan-2-yl)-N-(2-(dimethylamino)ethyl)-2,4-dioxo-1,2,3,4-tetrahydroquinazoline-7-carboxamide] and CN1CCC(CNC(=O)c2ccc3c(=O)n(C(CC4CCCCC4)C(=O)Nc4ncc(Cl)s4)c(=O)[nH]c3c2)CC1 (stereo not shown) [Compound 179, 3-(1-(5-chlorothiazol-2-ylamino)-3-cyclohexyl-1-oxopropan-2-yl)-N-((1-methylpiperidin-4-yl)methyl)-2,4-dioxo-1,2,3,4-tetrahydroquinazoline-7-carboxamide] fall in the same range of EC50: 501 to 794 nM for the first, 501 to 794 nM for the second.

First: CN1CCC(CNC(=O)c2ccc3c(=O)n(C(CC4CCCCC4)C(=O)Nc4ncc(Cl)s4)cnc3c2)CC1 (stereo not shown) [Compound 178, 3-(1-(5-chlorothiazol-2-ylamino)-3-cyclohexyl-1-oxopropan-2-yl)-N-((1-methylpiperidin-4-yl)methyl)-4-oxo-3,4-dihydroquinazoline-7-carboxamide]
Second: O=C(NC1CC1)c1ccc2c(=O)n(C(CC3CCOCC3)C(=O)Nc3ncc(Cl)s3)cnc2c1 (stereo not shown) [Compound 180, 3-(1-(5-chlorothiazol-2-ylamino)-1-oxo-3-(tetrahydro-2H-pyran-4-yl)propan-2-yl)-N-cyclopropyl-4-oxo-3,4-dihydroquinazoline-7-carboxamide]
The EC50 of the first is lower: 1000 to 1580 nM for the first, no less than 2000 nM for the second. The first is the more potent here.

First: O=C(NC1CC1)c1ccc2c(=O)n(C(CC3CCOCC3)C(=O)Nc3ncc(Cl)s3)c(=O)[nH]c2c1 (stereo not shown) [Compound 181, 3-(1-(5-chlorothiazol-2-ylamino)-1-oxo-3-(tetrahydro-2H-pyran-4-yl)propan-2-yl)-N-cyclopropyl-2,4-dioxo-1,2,3,4-tetrahydroquinazoline-7-carboxamide]
Second: COC(=O)c1ccc(NC(=O)C(CC2CCCCC2)n2cnc3c(C)cc(Cl)cc3c2=O)nc1 (stereo not shown) [Compound 207, methyl 6-(2-(6-chloro-8-methyl-4-oxoquinazolin-3(4H)-yl)-3-cyclohexylpropanamido)nicotinate]
The EC50 of the first is higher: no less than 2000 nM for the first, 1000 to 1580 nM for the second. The second is the more potent here.

CS(=O)(=O)c1csc2c(=O)n(C(CC3CCCCC3)C(=O)Nc3ccc(C(N)=O)cn3)cnc12 (stereo not shown) [Compound 182, 6-(3-cyclohexyl-2-(7-(methylsulfonyl)-4-oxothieno[3,2-d]pyrimidin-3(4H)-yl)propanamido)nicotinamide] and CS(=O)(=O)c1csc2c(=O)n(C(CC3CCCCC3)C(=O)Nc3ccc(Cl)cn3)cnc12 (stereo not shown) [Compound 184, N-(5-chloropyridin-2-yl)-3-cyclohexyl-2-(7-(methylsulfonyl)-4-oxothieno[3,2-d]pyrimidin-3(4H)-yl)propanamide] fall in the same range of EC50: 1000 to 1580 nM for the first, 1000 to 1580 nM for the second.

Cc1ccc(NC(=O)C(CC2CCCCC2)n2cnc3ccc(F)cc3c2=O)nc1 (stereo not shown) [Compound 192, 3-cyclohexyl-2-(6-fluoro-4-oxoquinazolin-3(4H)-yl)-N-(5-methylpyridin-2-yl)propanamide] and COC(=O)c1ccc(NC(=O)C(CC2CCCCC2)n2cnc3ccc(F)cc3c2=O)nc1 (stereo not shown) [Compound 193, methyl 6-(3-cyclohexyl-2-(6-fluoro-4-oxoquinazolin-3(4H)-yl)propanamido)nicotinate] cannot be ordered by EC50: no less than 2000 nM for the first, no less than 2000 nM for the second.

First: O=C(Nc1ccc2ccccc2n1)C(CC1CCCCC1)n1cnc2ccc(F)cc2c1=O (stereo not shown) [Compound 195, 3-cyclohexyl-2-(6-fluoro-4-oxoquinazolin-3(4H)-yl)-N-(quinolin-2-yl)propanamide]
Second: COC(=O)c1ccc(NC(=O)[C@H](CC2CCCCC2)n2cnc3ccc(F)cc3c2=O)nc1 [Compound 203, (S)-methyl 6-(3-cyclohexyl-2-(6-fluoro-4-oxoquinazolin-3(4H)-yl)propanamido)nicotinate]
The EC50 of the first is lower: 501 to 794 nM for the first, 1000 to 1580 nM for the second.

COC(=O)c1ccc(NC(=O)C(CC2CCCCC2)n2cnc3cc(F)ccc3c2=O)nc1 (stereo not shown) [Compound 205, methyl 6-(3-cyclohexyl-2-(7-fluoro-4-oxoquinazolin-3(4H)-yl)propanamido)nicotinate] and COC(=O)c1ccc(NC(=O)C(CC2CCCCC2)n2cnc3c(C(F)(F)F)cccc3c2=O)nc1 (stereo not shown) [Compound 209, methyl 6-(3-cyclohexyl-2-(4-oxo-8-(trifluoromethyl)quinazolin-3(4H)-yl)propanamido)nicotinate] fall in the same range of EC50: 1000 to 1580 nM for the first, 1000 to 1580 nM for the second.

First: COC(=O)c1ccc(NC(=O)[C@H](CC2CCCCC2)n2cnc3c(C(F)(F)F)cccc3c2=O)nc1 [Compound 210, (S)-methyl 6-(3-cyclohexyl-2-(4-oxo-8-(trifluoromethyl)quinazolin-3(4H)-yl)propanamido)nicotinate]
Second: COC(=O)c1ccc(NC(=O)[C@@H](CC2CCCCC2)n2cnc3c(C(F)(F)F)cccc3c2=O)nc1 [Compound 211, (R)-methyl 6-(3-cyclohexyl-2-(4-oxo-8-(trifluoromethyl)quinazolin-3(4H)-yl)propanamido)nicotinate]
The EC50 of the first is higher: 1000 to 1580 nM for the first, no more than 398 nM for the second.
